# Test results: patent USRE38425E1, “Semicarbazones having CNS activity and pharmaceutical preparations containing same” (University of Saskatchewan Technologies, Inc., priority 1995, dated 2004)
# Where “and” joins values, the source holds several entries; their conditions need not be identical. Identical values can stand only once. Like-named read-outs stand apart in the source and are kept apart here.
# Experiments:
# kindled rat = kindled rat test (corneal kindled rat screen); assay type: in vivo, rats; settings: for protection in the corneal kindled rat screen: in vivo; for ED50: Rattus norvegicus, read-out: ED50 (dose required to reduce seizures from stage 5 to stage 3 or less)
# From the text: Particularly preferred compounds according to the present invention are 4-(4′-fluorophenoxy)benzaldehyde semicarbazone and 4-(thiophenoxy)benzaldehyde semicarbazone. […] Incidentally, the kindled rat screen is described by R. J. Racine in “Modification of Seizure Activity by Electrical Stimulation. II. Motor Seizure”, Electroencephalogr.Clin.Neurophysiol., 1972, 32, 281-294, and by G. Skeen et al. In “Development of Kindled Seizures Following Electrical Stimulation via the Cornea”, Soc.Neurosci., 1990, 16(1), 307; the disclosures of which are incorporated herein by reference.
# The kindled rat test was undertaken by reported procedures (as indicated above). Compound 4b was administered orally and the animals challenged with electrical stimuli 2h later. The ED50 is the dose required to reduce seizures from stage 5 to stage 3 or less and these stages are described as follows namely stage 1 is mouth and facial clonus, stage 2 is stage 1 plus head nodding, stage 3 is stage 2 plus forelimb clonus, stage 4 is stage 3 plus rearing and stage 5 is stage 4 plus repeated rearing and falling.
# rats [1] = assay: neurotoxicity screen after oral administration to rats; settings: oral administration to rats; time t (h) per compound as in the table
# Protocol: (§1) Initially doses of 50 mg/kg of the semicarbazones were administered.
# rats [2] = assay: MES screen after oral administration to rats; settings: for ED50: Rattus norvegicus, po; for MES screen: number of rats out of 4 which were protected: oral administration to rats
# Protocol: The majority of the compounds were examined for oral activity in rats. Initially doses of 50 mg/kg of the semicarbazones were administered.
# Evaluation of most of the semicarbazones and analogs in the MES and neurotoxicity tests after oral administration to rats was performed.
# mice [3] = assay: MES screen after intraperitoneal injection in mice; assay type: in vivo; settings: time t (h) per compound as in the table; for ED50: Mus musculus, ip
# mice [4] = settings: intraperitoneal injection in mice; time t (h) per compound as in the table
# Protocol: An initial anticonvulsant evaluation of the compounds prepared according to Example 1 was undertaken by administering the compounds by the intraperitoneal route to mice. Protection and/or neurotoxicity was noted 0.5 and 4 hours after administering doses of 30, 100 and 300 mg/kg of each semicarbazone to the animals.
# Doses of 30, 100 and 300 mg/kg were injected by the intraperitoneal route into mice and evaluated in the MES, scPTZ and neurotoxicity screens one half and four hours after administration.
# mice [5] = system: mice
# epileptic chicken = epileptic chicken model (intermittent photic stimulation); assay type: in vivo; settings: convulsions induced by intermittent photic stimulation
# From the text: Two series of compounds were examined with the aim of observing whether oxygen or sulfur is a preferable spacer atom between the two aryl rings and also to compare the ED50 figures with those obtained in the rat oral and mouse intraperitoneal screens.
# in vivo = settings: rat, po
# Protocol: as §1
# rats [6] = settings: rat, in vivo, po
# Protocol: as §1
# [7] = read-out: MES screen ED50 (mg/kg)
# [8] = intraperitoneal injection in mice, read-out: MES screen ED50
# [9] = intraperitoneal injection in mice
# [10] = intraperitoneal injection in mice, time t (h) per compound as in the table
smiles,measurement,setting,value
NC(=O)NN=Cc1ccc(Oc2ccc(F)cc2)cc1 [4-(4′-fluorophenoxy)benzaldehyde semicarbazone],protection in the corneal kindled rat screen,kindled rat,afford protection
NC(=O)NN=Cc1ccc(Sc2ccccc2)cc1 [4-(thiophenoxy)benzaldehyde semicarbazone],protection in the corneal kindled rat screen,kindled rat,afford protection
"NC(=O)N1c2ccccc2C=Cc2ccccc21 [Carbamazepine, reference compound]",neurotoxicity screen TD50,rats [1],361 mg/kg
same,ED50,rats [2]; [7],3.57 mg/kg
same,ED50,mice [3]; [8],9.85 mg/kg
same,ED50,kindled rat,28.9 mg/kg
same,acPTZ screen ED50,mice [4],>50 mg/kg
same,toxicity screen 0.5 h: minimum dose whereby bioactivity was demonstrated in half or more of the mice,"mice [5]; mouse, in vivo, 0.5 h",100 mg/kg
same,toxicity screen: minimum dose whereby bioactivity was demonstrated in half or more of the mice,"mice [5]; mouse, in vivo, 0.5 h",100 mg/kg
same,toxicity screen 4 h: minimum dose whereby bioactivity was demonstrated in half or more of the mice,"mice [5]; mouse, in vivo, 4 h",300 mg/kg
same,toxicity screen: minimum dose whereby bioactivity was demonstrated in half or more of the mice,"mice [5]; mouse, in vivo, 4 h",300 mg/kg
same,neurotoxicity screen TD50,"mice [5]; mouse, in vivo, ip",47.8 mg/kg
NC(=O)NN=Cc1ccc(Sc2ccccc2)cc1 [Compound 15a],neurotoxicity screen TD50,rats [1],>496 mg/kg
same,MES screen: number of rats out of 4 which were protected,"rats [2]; dose 50 mg/kg, 0.5 h",4
same,MES screen: number of rats out of 4 which were protected,"rats [2]; dose 50 mg/kg, 1 h",4
same,MES screen: number of rats out of 4 which were protected,"rats [2]; dose 50 mg/kg, 2 h",4
same,MES screen: number of rats out of 4 which were protected,"rats [2]; dose 50 mg/kg, 4 h",4
same,MES screen ED50,mice [3]; [9],15.62 mg/kg
same,ED50 in the epileptic chicken model,epileptic chicken,2.5 mg/kg
same,acPTZ screen ED50,mice [4],>46 mg/kg
same,neurotoxicity screen TD50,mice [5]; [10],181.00 mg/kg
NC(=O)NN=Cc1ccc(Sc2ccc(F)cc2)cc1 [Compound 16a],neurotoxicity screen TD50,rats [1],183.05 mg/kg
same,MES screen: number of rats out of 4 which were protected,"rats [2]; dose 12.5 mg/kg, 0.25 h",1
same,MES screen: number of rats out of 4 which were protected,"rats [2]; dose 12.5 mg/kg, 0.5 h",3
same,MES screen: number of rats out of 4 which were protected,"rats [2]; dose 12.5 mg/kg, 1 h",4
same,MES screen: number of rats out of 4 which were protected,"rats [2]; dose 12.5 mg/kg, 2 h",4
same,MES screen: number of rats out of 4 which were protected,"rats [2]; dose 12.5 mg/kg, 4 h",4
same,MES screen ED50,mice [3]; [9],12.37 mg/kg
same,ED50 in the epileptic chicken model,epileptic chicken,1.5 mg/kg
same,acPTZ screen ED50,mice [4],>120 mg/kg
same,neurotoxicity screen TD50,mice [5]; [10],88.00 mg/kg
NC(=O)NN=Cc1ccc(Sc2ccc(Cl)cc2)cc1 [Compound 16b],MES screen: number of rats out of 4 which were protected,"rats [2]; dose 50 mg/kg, 0.25 h",1
same,MES screen: number of rats out of 4 which were protected,"rats [2]; dose 50 mg/kg, 0.5 h",4
same,MES screen: number of rats out of 4 which were protected,"rats [2]; dose 50 mg/kg, 1 h",4
same,MES screen: number of rats out of 4 which were protected,"rats [2]; dose 50 mg/kg, 2 h",4
same,MES screen: number of rats out of 4 which were protected,"rats [2]; dose 50 mg/kg, 4 h",4
same,MES screen ED50,mice [3]; [9],16.22 mg/kg
same,ED50 in the epileptic chicken model,epileptic chicken,1.0 mg/kg
same,acPTZ screen ED50,mice [4],>120 mg/kg
same,neurotoxicity screen TD50,mice [5]; [10],53.18 mg/kg
NC(=O)NN=Cc1ccc(Sc2ccc(Br)cc2)cc1 [Compound 16c],MES screen: number of rats out of 4 which were protected,"rats [2]; dose 12.5 mg/kg, 0.25 h",0
same,MES screen: number of rats out of 4 which were protected,"rats [2]; dose 12.5 mg/kg, 0.5 h",1
same,MES screen: number of rats out of 4 which were protected,"rats [2]; dose 12.5 mg/kg, 1 h",3
same,MES screen: number of rats out of 4 which were protected,"rats [2]; dose 12.5 mg/kg, 2 h",4
same,MES screen: number of rats out of 4 which were protected,"rats [2]; dose 12.5 mg/kg, 4 h",4
same,MES screen ED50,mice [3]; [9],24.37 mg/kg
same,ED50 in the epileptic chicken model,epileptic chicken,1.5 mg/kg
same,acPTZ screen ED50,mice [4],>200 mg/kg
same,neurotoxicity screen TD50,mice [5]; [10],122.57 mg/kg
"O=C1NC(=O)C(c2ccccc2)(c2ccccc2)N1 [Phenytoin, reference compound]",ED50,rats [2]; [7],23.2 mg/kg
same,ED50,mice [3]; [8],6.32 mg/kg
same,MES screen ED50,mice [3]; [9],6.48 mg/kg
same,ED50,kindled rat,> 100 mg/kg
same,acPTZ screen ED50,mice [4],>50 mg/kg
same,TD50,in vivo,> 500 mg/kg
same,neurotoxicity screen TD50,mice [5]; [10],41.23 mg/kg and 42.8 mg/kg
same,toxicity screen 0.5 h: minimum dose whereby bioactivity was demonstrated in half or more of the mice,"mice [5]; mouse, in vivo, 0.5 h",100 mg/kg
same,toxicity screen: minimum dose whereby bioactivity was demonstrated in half or more of the mice,"mice [5]; mouse, in vivo, 0.5 h",100 mg/kg
same,toxicity screen 4 h: minimum dose whereby bioactivity was demonstrated in half or more of the mice,"mice [5]; mouse, in vivo, 4 h",100 mg/kg
same,toxicity screen: minimum dose whereby bioactivity was demonstrated in half or more of the mice,"mice [5]; mouse, in vivo, 4 h",100 mg/kg
"CCCC(CCC)C(=O)O [Valproic acid, reference compound]",ED50,"rats [2]; read-out: MES screen ED50 (mg/kg), oral administration to rats, time t (h) per compound as in the table",395 mg/kg
same,ED50,"mice [3]; read-out: MES screen ED50 (mg/kg), intraperitoneal injection in mice",287 mg/kg
same,neurotoxicity screen TD50,rats [6],859 mg/kg
same,ED50,kindled rat,117 mg/kg
same,acPTZ screen ED50,mice [4],209 mg/kg
